The structures appear in SMILES notation.

The subject of test [1] is XANST (Xanthium strumarium, common cocklebur). The test is described as follows: Pre-emergence soil-applied mixtures, greenhouse. Type of test: in vivo, Xanthium strumarium L. As to conditions: 29 DAA. An excerpt:
(§1) Seeds or nutlets of the desired test plant species were planted in a soil matrix prepared by mixing a loam soil (32 percent silt, 23 percent clay, and 45 percent sand, with a pH of about 6.5 and an organic matter content of about 1.9 percent) and calcareous grit in an 80 to 20 ratio. The soil matrix was contained in plastic pots with a volume of 1 quart and a surface area of 83.6 square centimeters (cm^2).
(§2) Treatments consisted of the benzyl ester of 4-amino-3-chloro-5-fluoro-6-(4-chloro-2-fluoro-3-methoxy-phenyl)pyridine-2-carboxylic acid (compound A) formulated as an SC (suspension concentrate) and various herbicidal components alone and in combination. Forms of compound A were applied on an acid equivalent basis.
(§3) Other herbicidal components were applied on an acid equivalent or active ingredient basis and included the PSII-inhibiting herbicides, atrazine formulated as Atrazine® 90WDG, metribuzin formulated as Metribuzin 75DF, simazine formulated as Princep Caliber 90, tebuthiuron formulated as Spike 80DF, cyanazine (technical grade material), hexazinone (technical grade material), linuron (technical grade material), terbuthylazine (technical grade material), and diuron formulated as Diuron 4L.
(§4) Treatment requirements were calculated based upon the rates being tested, the concentration of active ingredient or acid equivalent in the formulation, and a 12 mL application volume at a rate of 187 L/ha.
(§5) For treatments comprised of formulated compounds, measured amounts of compounds were placed individually in 25 mL glass vials and diluted in a volume of 1.25% (v/v) Agri-Dex® crop oil concentrate (COC) to obtain 12× stock solutions. […] Application solutions were prepared by adding an appropriate amount of each stock solution (e.g., 1 mL) and diluted to the appropriate final concentrations with the addition of 10 mL of an aqueous mixture of 1.25% (v/v) COC so that the final spray solutions contained 1.25% (v/v) COC.
(§6) For treatments comprised of technical compounds, weighed amounts can be placed individually in 25 mL glass vials and dissolved in a volume of 97:3 (v/v) acetone/DMSO to obtain 12× stock solutions. […] Application solutions can be prepared by adding an appropriate amount of each stock solution (e.g., 1 mL) and diluted to the appropriate final concentrations with the addition of 10 mL of an aqueous mixture of 1.5% (v/v) COC so that the final spray solutions contain 1.25% (v/v) COC. When technical materials are used, the concentrated stock solutions can be added to the spray solutions so that the final acetone and DMSO concentrations of the application solutions are 16.2% and 0.5%, respectively.
(§7) For treatments comprised of formulated and technical compounds, weighed amounts of the technical materials can be placed individually in 25 mL glass vials and dissolved in a volume of 97:3 (v/v) acetone/DMSO to obtain 12× stock solutions, and measured amounts of the formulated compounds can be placed individually in 25 mL glass vials and diluted in a volume of 1.5% (v/v) COC or water to obtain 12× stock solutions. […] Application solutions can be prepared by adding an appropriate amount of each stock solution (e.g., 1 mL) and diluted to the appropriate final concentrations with the addition of an appropriate amount of an aqueous mixture of 1.5% (v/v) COC so that the final spray solutions contain 1.25% (v/v) COC. As required, additional water and/or 97:3 (v/v) acetone/DMSO can be added to individual application solutions so that the final acetone and DMSO concentrations of the application solutions being compared are 8.1% and 0.25%, respectively.
(§8) All stock solutions and applications solutions were visually inspected for compound compatibility prior to application. Spray solutions were applied to the soil with an overhead Mandel track sprayer equipped with a 8002E nozzles calibrated to deliver 187 L/ha over an application area of 0.503 m^2 at a spray height of 18 inches (46 cm) above average pot height. […]

In test [2] the test system is IPOHE (Ipomoea hederacea, ivyleaf morningglory). The experiment in a line: Pre-emergence soil-applied mixtures, greenhouse. Type of test: in vivo, Ipomoea hederacea (L.) Jacq.
Description: as §1, §2, §3, §4, §5
For treatments comprised of technical compounds, weighed amounts can be placed individually in 25 mL glass vials and dissolved in a volume of 97:3 (v/v) acetone/DMSO to obtain 12× stock solutions. […]
For treatments comprised of formulated and technical compounds, weighed amounts of the technical materials can be placed individually in 25 mL glass vials and dissolved in a volume of 97:3 (v/v) acetone/DMSO to obtain 12× stock solutions, and measured amounts of the formulated compounds can be placed individually in 25 mL glass vials and diluted in a volume of 1.5% (v/v) COC or water to obtain 12× stock solutions. […]

In test [3] the test system is SINAR (Sinapis arvensis, wild mustard). The experiment in a line: Postemergence herbicidal activity of mixtures in cereal crops, greenhouse. Type of test: in vivo, Sinapis arvensis L. How it is done: (§9) Seeds of the desired test plant species were planted in Sun Gro MetroMix® 306 planting mixture, which typically has a pH of 6.0 to 6.8 and an organic matter content of about 30 percent, in plastic pots with a surface area of 103.2 square centimeters (cm^2). When required to ensure good germination and healthy plants, a fungicide treatment and/or other chemical or physical treatment was applied. The plants were grown for 7-36 days in a greenhouse with an approximate 14 hour photoperiod which was maintained at about 18° C. during the day and about 17° C. during the night. Nutrients and water were added on a regular basis and supplemental lighting was provided with overhead metal halide 1000-Watt lamps as necessary. The plants were employed for testing when they reached the second or third true leaf stage.
(§10) Treatments consisted of the benzyl ester of 4-amino-3-chloro-5-fluoro-6-(4-chloro-2-fluoro-3-methoxy-phenyl)pyridine-2-carboxylic acid (Compound A), formulated as an SC, a second cereal herbicide alone and then both in combination.
(§11) Other herbicidal components were applied on an active ingredient basis and included PSII-inhibiting herbicides.
(§12) Measured aliquots of benzyl ester of 4-amino-3-chloro-5-fluoro-6-(4-chloro-2-fluoro-3-methoxy-phenyl)pyridine-2-carboxylic acid (Compound A) were placed in 25 milliliter (mL) glass vials and diluted in a volume of 1.25% (v/v) Agri-Dex® crop oil concentrate to obtain stock solutions. Compound requirements are based upon a 12 mL application volume at a rate of 187 liters per hectare (L/ha). Spray solutions of the second cereal herbicide and experimental compound mixtures were prepared by adding the stock solutions to the appropriate amount of dilution solution to form 12 mL spray solution with active ingredients in two- and three-way combinations. Formulated compounds were applied to the plant material with an overhead Mandel track sprayer equipped with an 8002E nozzle calibrated to deliver 187 L/ha over an application area of 0.503 square meters (m^2) at a spray height of 18 inches (46 cm) above average plant canopy. Control plants were sprayed in the same manner with the solvent blank.
(§13) The treated plants and control plants were placed in a greenhouse as described above and watered by sub-irrigation to prevent wash-off of the test compounds. After 20-22 days, the condition of the test plants as compared with that of the control plants was determined visually and scored on a scale of 0 to 100 percent where 0 corresponds to no injury and 100 corresponds to complete kill.
(§14) Colby's equation was used to determine the herbicidal effects expected from the mixtures (Colby, S. R. 1967. Calculation of the synergistic and antagonistic response of herbicide combinations. Weeds 15:20-22).
(§15) The following equation was used to calculate the expected activity of mixtures containing two active ingredients, A and B: Expected=A+B−(A×B/100)

Test [4] has as its system AMARE (Amaranthus retroflexus, redroot pigweed). The description is as above. The class given is in vivo, Amaranthus retroflexus L. How it is done: as §9, §10, §11, §12, §13
(§16) Colby's equation was used to determine the herbicidal effects expected from the mixtures (Colby, S. R. 1967. Calculation of the synergistic and antagonistic response of herbicide combinations. Weeds 15:20-22). […]

Test [5] has as its system GALAP (Galium aparine, catchweed bedstraw). The test is described as above. Type of test: in vivo, Galium aparine L. How it is done:
as §9, §10, §11, §12, §13, §14, §15

Test [6] deals with VERPE (Veronica persica, Persian speedwell). The description is as above. Type of test: in vivo, Veronica persica Poir. As to the method: as §9, §10, §11, §12, §13, §14, §15
Test [7] deals with LAMPU (Lamium purpureum, purple deadnettle). Described as above. The class given is in vivo, Lamium purpureum L. How it is done:
as §9, §10, §11, §12, §13, §14, §15

Test [8] relates to SETFA (Setaria faberi, giant foxtail). The test is described as follows: Pre-emergence soil-applied mixtures, greenhouse. Type of test: in vivo, Setaria faberi Herrm. The settings on record: 27 DAA.
Description: as §1, §2, §3, §4, §5, §6, §7, §8

Test [9] has as its system SASKR (Salsola tragus, Russian thistle). The experiment in a line: Postemergence herbicidal activity of mixtures in cereal crops, greenhouse. The class given is in vivo, Salsola tragus L. As to the method: as §9, §10, §11, §12, §13, §14, §15
In test [10] the test system is KCHSC (Kochia scoparia, kochia). Described as above. Type of test: in vivo, Kochia scoparia (L.) Schrad. How it is done:
as §9, §10, §11, §12, §13, §14, §15

The test system of test [11] is CHEAL (Chenopodium album, common lambsquarters). Described as above. The class given is in vivo, Chenopodium album L. As to the method: as §9, §10, §11, §12, §13, §16

As for `CNC(=O)N(C)c1nnc(C(C)(C)C)s1` [Tebuthiuron, N-[5-(1,1-dimethylethyl)-1,3,4-thiadiazol-2-yl]-N,N′-dimethylurea, reference compound], the figures for the “Visual Weed Control (%) - 29 DAA XANST Obs” value in test [1] (Tebuthiuron 210 g ai/ha) and in [1] (Tebuthiuron 3360 g ai/ha) were 40% and 95%, respectively. Further, the results for the “Visual Weed Control (%) - 33 DAA IPOHE Obs” value in test [2] (Tebuthiuron 420 g ai/ha) and in test [2] (Tebuthiuron 840 g ai/ha) were 87% and 90%, respectively.

For the compound `CC(C)c1ccc(NC(=O)N(C)C)cc1` [Isoproturon, N,N-dimethyl-N′-[4-(1-methylethyl)phenyl]urea, reference compound], the results for the “Visual Weed Control (%)-21 DAA SINAR Obs” value in test [3] (Isoproturon 375 g ai/ha) and in test [3] (Isoproturon 750 g ai/ha) were 13% and 40%, respectively. The “Visual Weed Control (%) - 21 DAA AMARE Obs” value in test [4] (Isoproturon 375 g ai/ha) came to 3%; in test [4] (Isoproturon 750 g ai/ha) it was 10%. In addition, the “Visual Weed Control (%) - 21 DAA GALAP Obs” value in test [5] (Isoproturon 375 g ai/ha) is given as 5%; in [5] (Isoproturon 750 g ai/ha), 5%; in [5] (Isoproturon 1500 g ai/ha), 27%. Moreover, the “Visual Weed Control (%) - 21 DAA VERPE Obs” value worked out at 8% in test [6] (Isoproturon 375 g ai/ha), 10% in test [6] (Isoproturon 750 g ai/ha) and 13% in [6] (Isoproturon 1500 g ai/ha). The “Visual Weed Control (%)-21 DAA LAMPU Obs” value was 3% in [7] (Isoproturon 375 g ai/ha), 3% in [7] (Isoproturon 750 g ai/ha) and 13% in test [7] (Isoproturon 1500 g ai/ha).

Turning to `CSc1nnc(C(C)(C)C)c(=O)n1N` [Metribuzin, 4-amino-6-(1,1-dimethylethyl)-3-(methylthio)-1,2,4-triazin-5(4H)-one, reference compound], the “Visual Weed Control (%) Obs” value in test [8] (210 g ai/ha) is given as 43%; in test [8] (420 g ai/ha), 83%. Besides, the “Visual Weed Control (%)-21 DAA SINAR Obs” value turned out to be 8% in test [3] (Metribuzin 25 g ai/ha) and 15% in [3] (Metribuzin 50 g ai/ha). Also, the “Visual Weed Control (%)-21 DAA SASKR Obs” value in test [9] (Metribuzin 25 g ai/ha) was 8%; in test [9] (Metribuzin 50 g ai/ha), 8%; in test [9] (Metribuzin 100 g ai/ha) it was 67%. Besides, the “Visual Weed Control (%)-21 DAA LAMPU Obs” value in test [7] (Metribuzin 25 g ai/ha) came out at 3%; in test [7] (Metribuzin 50 g ai/ha), 15%; in [7] (Metribuzin 100 g ai/ha), 23%. Besides, the “Visual Weed Control (%)-21 DAA KCHSC Obs” value came to 0% in [10] (Metribuzin 25 g ai/ha), 8% in test [10] (Metribuzin 50 g ai/ha) and 88% in [10] (Metribuzin 100 g ai/ha). The “Visual Weed Control (%)-21 DAA CHEAL Obs” value is on record as 0% in test [11] (Metribuzin 25 g ai/ha) and 55% in test [11] (Metribuzin 50 g ai/ha).

These data come from patent US8912121B2, “Herbicidal compositions comprising 4-amino-3-chloro-5-fluoro-6-(4-chloro-2-fluoro-3-methoxyphenyl)pyridine-2-carboxylic acid or a derivative thereof and certain PS II inhibitors” (Dow Agrosciences LLC, priority 2012, dated 2014).
